Where a SMILES comes first, the peptide text is derived from it. Bridges are numbered along the chain shown (N, C = ends).
Key:
HSV-2 = experiment: HSV inactivation microplate assay on ME-180 cells (MTT); type: cell-based; settings: 2-50 μg/ml, 2 hrs with virus, 72 hrs culture
Experimental: FIG. 14. Inactivation of HSV-1 and HSV-2 by retrocyclin and RC-101. Retrocyclin (left panel) and RC-101 (right panel) at the indicated concentrations were incubated with herpes simplex virus, type 1 (HSV-1) or HSV-2 for 2 hrs and then added to ME-180 cell monolayers. Cells were incubated at 37° C. for 72 hrs, and cytotoxicity was measured with an MTT kit.
Some retrocyclins are slightly active against herpes simplex virus (HSV). To determine if the activity of retrocyclin against HIV-1 was specific or representative of a more global antiviral effect, it was tested its ability to prevent HSV infection in vitro. A quantitative microplate assay was used to screen retrocyclin and retrocyclin-congeners for their ability to inactivate HSV type 1 (HSV-1) and HSV-2. The assay utilized small amounts of peptide and simultaneously evaluated for peptide-induced cytotoxicity. In brief, final peptide concentrations of 2-50 μg/ml were incubated with virus stocks for 2 hrs and added directly to ME-180 human cervical carcinoma cells. Cultures were incubated at 37° C. for 72 hrs and cytotoxicity was measured using a 3-(4,5-dimethylthiazon-2-yl)-2,5-diphenyltetrazolium bromide (MTT) cell proliferation kit (Boehringer-Mannheim, Germany). Calculations to assess antiviral activity and compute “percent protection” are delineated in (90).

gp120 (LAV) = target: T1, gp120 (LAV) (Human immunodeficiency virus type 1 group M subtype B, UniProt P03377); experiment: Surface plasmon resonance binding; set-up: species or system HIV-1
T1 construct: Glycosylated HIV-1 gp120 (LAV) envelope glycoprotein; purchased Protein Sciences Corporation, Meriden, Conn; 2003-LAV
Experimental: FIG. 20. Binding to gp120. These binding isotherms were measured by surface plasmon resonance, using a biosensor chip that contained immobilized, recombinant gp120. Various concentrations of RC-100 and RC-101 (0.05 to 0.5 μg/ml) flowed over the biosensor chip between minutes 1 to 4, to allow the “on rates” to be measured. At 4 minutes, the peptide-containing solutions were replaced by peptide-free medium, to ascertain the “off-rates.”
(§1) Surface plasmon resonance. Recombinant human soluble CD4 (full-length 45 kDa glycosylated ectodomain) was produced by ExpresSF+S. frugiperda cells in serum-free medium (Protein Sciences Corporation, Meriden, Conn.). Glycosylated HIV-1 gp120 (LAV) envelope glycoprotein (Catalog No. 2003-LAV) was purchased from the same source. Recombinant HIV-1BaL was obtained through the AIDS Research and Reference Reagent Program, Division of AIDS, National Institute of Allergy and Infectious Disease, NIH.
(§2) Surface plasmon resonance (SPR) experiments were done with a Biacore 2000 system (Biacore, Inc., Piscataway, N.J.). The running buffer (pH 7.4) contained 10 mM HEPES, 150 mM NaCl, 3 mM EDTA and 0.005% polysorbate 20. The immobilized proteins (gp120-LAV and CD4) were dissolved at 20 μg/ml in 10 mM sodium acetate, pH 5.0 and immobilized on a Biacore CM5 sensor chip using the amine coupling method. The chip was activated by mixing 400 mM EDC (N-ethyl-N-(3-dimethylaminopropyl)-carbodiimide hydrochloride) and 100 mM N-hydroxysuccinimide. An immobilization level of −6000 response units (RU) was attained for each bound protein. Residual reactive groups on the chip surface were blocked using 1.0 Methanolamine/HCl, pH 8.5.
(§3) The flow cell chip used as a control lacked immobilized protein but was otherwise treated as above. Signals were corrected for nonspecific binding by subtracting the control signal. To regenerate the chip surface, bound ligands were removed with 10 mM HCl. Data were analyzed with BIAevaluation 3.1 software. Curve fitting was done with an assumption of 1:1 binding.
We previously reported that the protection against HIV-1 afforded by retrocyclin-1 and its analogs was correlated to their binding to gp120 and CD4. In those experiments, biosensor chips containing immobilized gp120 or CD4 were perfused with a 1 μg/ml solution of the peptides, and binding was measured by surface plasmon resonance. When we compared binding by retrocyclin-1 and RC-101 in exactly the same manner, we saw very little difference between them. FIG. 20 compares the binding of lower concentrations of these peptides, ranging from 0.05 to 0.5 μg/ml, to immobilized gp120 LAV. From these binding isotherms, and from similar studies performed with biosensor chips containing immobilized gp120 BaL or CD4, the binding constants shown in Table 7 were obtained. […]

CD4 = target: T2, CD4 (Homo sapiens, UniProt P01730); experiment: Surface plasmon resonance binding; settings: immobilized CD4
T2 construct: Recombinant human soluble CD4 (full-length 45 kDa glycosylated ectodomain); purchased Protein Sciences Corporation, Meriden, Conn; host or cells: ExpresSF+ S. frugiperda cells
Description: as §1
as §2, with “An immobilization level of −6000 response units (RU) was attained for each bound protein.” left out
as §3
In those experiments, biosensor chips containing immobilized gp120 or CD4 were perfused with a 1 μg/ml solution of the peptides, and binding was measured by surface plasmon resonance. […] No binding studies were performed with gp120 preparations derived from non-B HIV-1 subtypes.

SMILES | protection against HSV-2 (HSV-2) | koff (gp120 (LAV)) | kon (gp120 (LAV)) | koff (CD4) | kon (CD4)
CC[C@H](C)[C@@H]1NC(=O)CNC(=O)[C@H](CCCNC(=N)N)NC(=O)CNC(=O)[C@@H]2CSSC[C@H](NC1=O)C(=O)N[C@@H](CCCNC(=N)N)C(=O)N[C@H]1CSSC[C@H](NC(=O)[C@H](CCCNC(=N)N)NC(=O)[C@@H]3CSSC[C@H](NC(=O)[C@H]([C@@H](C)CC)NC1=O)C(=O)NCC(=O)N[C@@H](CCCNC(=N)N)C(=O)NCC(=O)N[C@@H]([C@@H](C)CC)C(=O)N3)C(=O)N[C@@H]([C@@H](C)CC)C(=O)N2 [RC-100, Retrocyclin] (cyclo(GICRCICGRGICRCICGR); disulfide 3-16, 5-14, 7-12) | modest protection | 0.00296 s⁻¹ | 80300 M⁻¹ s⁻¹ | 0.0022 s⁻¹ | 67700 M⁻¹ s⁻¹
CC[C@H](C)[C@@H]1NC(=O)CNC(=O)[C@H](CCCCN)NC(=O)CNC(=O)[C@@H]2CSSC[C@H](NC1=O)C(=O)N[C@@H](CCCNC(=N)N)C(=O)N[C@H]1CSSC[C@H](NC(=O)[C@H](CCCNC(=N)N)NC(=O)[C@@H]3CSSC[C@H](NC(=O)[C@H]([C@@H](C)CC)NC1=O)C(=O)NCC(=O)N[C@@H](CCCNC(=N)N)C(=O)NCC(=O)N[C@@H]([C@@H](C)CC)C(=O)N3)C(=O)N[C@@H]([C@@H](C)CC)C(=O)N2 [RC-101, R9K-Retrocyclin] | nearly completely protective | 0.00304 s⁻¹ | 97200 M⁻¹ s⁻¹ | 0.00226 s⁻¹ | 79000 M⁻¹ s⁻¹

Source: patent US7314858B2, “Retrocyclins: antiviral and antimicrobial peptides” (priority 2001, dated 2008)
